From patent US20250213603A1, “PHARMACEUTICAL COMPOSITION FOR TREATING CANCER” (SAGA UNIVERSITY, priority 2021, published 2025) come the findings set out here.

Data set [1] concerns BV173. The data set can be described thus: Induction of autophagosome formation (Cyto-ID Autophagy Detection Kit). The class given is cell-based. Particulars: BV173, 1 mM or 5 mM, 2 hours (FIG. 7). Here is the method: (§1) The induction of autophagosome formation by FA-HP-β-CyD was evaluated as follows.
(§2) Leukemia cell lines (K562 and BV173) were used in this example. The FA-HP-β-CyD synthesized in Example 1 was used.
(§3) The cells were cultured at a cell density of 4×10^5 cells/well on a 6-well plate and were treated for 2 hours with 1 mM or 5 mM HP-β-CyD or FA-HP-β-CyD, and the cells were incubated. This was followed by use of a Cyto-ID (registered trademark) Autophagy Detection Kit (Enzo Life Sciences, USA) and the use of an Axio Imager.M2 fluorescence microscope+an ApoTome.2 (Zeiss) for cell observation.

Data set [2] deals with K562. The data set is described as above. The class given is cell-based. Particulars: K562, 1 mM or 5 mM, 2 hours (FIG. 7). Here is the method:
as §1, §2, §3

The subject of another data set is A549. In words: Proliferation inhibitory action on low folate receptor-expressing cells (MTT assay). Particulars: A549, 2.5-10 mM, 72 hours (FIG. 3). It counts as cell-based, human. Here is the method: The proliferation inhibitory action on A549, a low folate receptor-expressing cell, was evaluated as follows.
A human non-small cell lung cancer cell line (A549) was used in this example. The FA-HP-β-CyD synthesized in Example 1 was used.
For cell proliferation, 2×10^4 cells of the […] were seeded with 100 μL DMEM medium (Sigma-Aldrich, USA) per well to a flatbottom 96-well plate (Greiner Labortechnik, Hamburg, Germany), and incubation for 72 hours was carried out with exposure to HP-β-CyD and FA-HP-β-CyD at different concentrations (0 mM (control: CT), 2.5 mM, 5 mM, 7.5 mM, and 10 mM). Evaluation was then carried out using a dimethyl-thiazole-diphenyl-tetrazolium (MTT) assay (Nacalai Tesque, Japan).
(Formazan colour is commonly taken as a measure of viable cells.)

Data set [3] has as its system BV173. The data set can be described thus: Apoptosis, Annexin V/propidium iodide staining. The class given is cell-based. Particulars: BV173, 0.5, 1 and 1.5 mM, 48 hours (FIG. 5). Here is the method: (§4) The apoptosis of cells exposed to FA-HP-β-CyD was evaluated using Annexin V/propidium iodide (PI) staining as follows.
as §2
(§5) The apoptosis assay was performed by staining the cells with propidium iodide (PI) and Annexin V (BD Biosciences). The cells were cultured at a cell density of 4×10^5 cells/well on a 6-well plate and were incubated for 48 hours with FA-HP-β-CyD at different concentrations (0 mM (control: CT), 0.5 mM, 1 mM, and 1.5 mM). The cells were then stained with propidium iodide (PI) and Annexin V-APC (BD Biosciences) and analysis was performed using an FACSVerse flow cytometry system (BD Biosciences).

Data set [4] relates to K562. The data set can be described thus: Apoptosis, Annexin V/propidium iodide staining. Particulars: K562, 0.5, 1 and 1.5 mM, 48 hours (FIG. 5). The class given is cell-based. Here is the method: as §4, §2, §5
Data set [5] has as its system BV173. The data set can be described thus: Cell proliferation inhibitory action in the presence of folic acid (MTT assay). Particulars: BV173, 5 mM, FA 2 mM, 2 hours (FIG. 4). The class given is cell-based. Here is the method: (§6) The cell proliferation inhibitory action on leukemia cell lines in the presence of folic acid (FA) was evaluated as follows using the MTT assay.
as §2
(§7) 2×10^4 of each cell with 100 μL of medium was seeded per well to a flatbottom 96-well plate (Greiner Labortechnik, Hamburg, Germany), and incubation for 2 hours at 37° C. was carried out in combination with medium containing HP-β-CyD (5 mM) and FA-HP-β-CyD (5 mM) in the presence or absence of FA (2 mM). Evaluation was then carried out using a Cell Counting Kit-8 (Dojindo, Japan), which is a modified dimethyl-thiazole-diphenyl-tetrazolium (MTT) assay.
(§8) The evaluation here was carried out as follows, respectively, for the “CT” and “only FA” in FIG. 4. Thus, 2×10^4 of each cell with 100 μL of medium was seeded per well to a flatbottom 96-well plate and incubation was carried out for 2 hours at 37° C.; this was evaluated as “CT”. Incubation for 2 hours at 37° C. while exposed to only FA was evaluated as “only FA”.
(§9) Significant difference was established as follows. A two sample t-test was performed on the agents under investigation (FA-HP-β-CyD with FA, FA-HP-β-CyD without FA). A significant difference is established when p<0.05 in the comparison of the two samples.

Data set [6] deals with K562. Described as above. Particulars: K562, 5 mM, FA 2 mM, 2 hours (FIG. 4). The class given is cell-based. Here is the method: as §6, §2, §7, §8, §9
In data set [7] the test system is BV173. In words: Cellular uptake of TRITC-labelled CyD, confocal microscopy. It counts as cell-based. Particulars: confocal microscopy (FIG. 6). Here is the method:
The cellular uptake of FA-HP-β-CyD was evaluated as follows.
A leukemia cell line (BV173) was used in this example. The FA-HP-β-CyD synthesized in Example 1 was used.
10 mg HP-β-CyD or FA-HP-β-CyD and 1 mg of TRITC were dissolved in 400 μL of dimethyl sulfoxide (DMSO) with stirring for 24 hours and the solution was then gradually poured into acetone. A precipitate was obtained and was washed with water. This was freeze-dried to prepare TRITC-HP-β-CyD and TRITC-FA-HP-β-CyD.
The cells were then cultured at a cell density of 4×10e5 per well on a 6-well plate and were incubated with […], TRITC-HP-β-CyD, FA-HP-β-CyD, or HP-βCyD at different concentrations. A Zeiss LSM880 confocal microscope was used to observe the cells. Imaris (Zeiss) fluorescent image analysis software was used for analysis.
The Control refers to incubation at the same time as the other exposure groups, but without exposure to an agent. Cell localization was stained by DAPI and the cell membrane was stained with PlasMen Bright Green, and the cellular uptake of TRITC-FA-HP-β-CyD was evaluated using confocal microscopy.

In the case of “folic acid-appended hydroxypropyl-β-cyclodextrin [FA-HP-β-CyD]”, the “autophagosome membrane protein LC3B” value in the data set with BV173 [1] and in the data set with K562 [2] was “increase in a concentration dependent manner” throughout. Besides, the “cytotoxic / antitumor activity on A549 low folate receptor-expressing cells” value with A549 is listed as “does not exhibit an antitumor activity”. Further, the apoptosis induction result in the data set on BV173 [3] and in the data set with K562 [4] was “induce apoptosis in a concentration dependent manner” throughout. Moreover, the “antitumor activity in the presence of FA compared to without FA” value in the data set with BV173 [5] and with K562 [6] was “significantly reduced” in each case. Besides, in the data set with BV173 [7], the cellular uptake entry is “incorporated in large amounts into the cell”.
